Results from the supplement of paper PMC10307832.

Legend:
Test in all cases: relative viability (nuclei count vs DMSO), 5 days (fraction); higher = more cells survive
[1] = compound: CC(C)(C)c1cc(NC(=O)Nc2ccc(-c3cn4c(n3)sc3cc(OCCN5CCOCC5)ccc34)cc2)no1 [Quizartinib] + CS(=O)(=O)CCNCc1ccc(-c2ccc3ncnc(Nc4ccc(OCc5cccc(F)c5)c(Cl)c4)c3c2)o1 [Lapatinib] (partner 2 µM)
Outline: (§1)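 Dosing by pin tool came one day after lung cancer cell lines were seeded in 1536-well plates, using either one drug or a fixed anchor-drug dose plus five library-drug doses (not always all listed) in √10 steps. After 5 days, nuclei were counted on 4× images. Relative viability is treated-well nuclei count divided by vehicle-well nuclei count, and values are medians of duplicate plates.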

[2] = compound: COCC[n+]1c2c(n(Cc3cnccn3)c1C)C(=O)c1ccccc1C2=O [YM155] + CCNC(=O)c1noc(-c2cc(C(C)C)c(O)cc2O)c1-c1ccc(CN2CCOCC2)cc1 [Luminespib] (partner 0.01 µM)
Outline: as §1

[3] = compound: COCC[n+]1c2c(n(Cc3cnccn3)c1C)C(=O)c1ccccc1C2=O [YM155] + Cc1nc(Nc2ncc(C(=O)Nc3c(C)cccc3Cl)s2)cc(N2CCN(CCO)CC2)n1 [Dasatinib] (partner 0.075 µM)
Outline: as §1

[4] = compound: CC(C)(C)c1cc(NC(=O)Nc2ccc(-c3cn4c(n3)sc3cc(OCCN5CCOCC5)ccc34)cc2)no1 [Quizartinib] + CC1(C)CCC(c2ccc(Cl)cc2)=C(CN2CCN(c3ccc(C(=O)NS(=O)(=O)c4ccc(N[C@H](CCN5CCOCC5)CSc5ccccc5)c(S(=O)(=O)C(F)(F)F)c4)cc3)CC2)C1 [Navitoclax] (partner 0.5 µM)
Outline: as §1

Row | Cell Line | relative viability ([1]; first compound 0.001 µM) | relative viability ([1]; first compound 0.003162 µM) | relative viability ([1]; first compound 0.01 µM) | relative viability ([1]; first compound 0.03162 µM) | relative viability ([1]; first compound 0.1 µM) | relative viability ([2]; first compound 0.002 µM) | relative viability ([2]; first compound 0.006325 µM) | relative viability ([2]; first compound 0.02 µM) | relative viability ([2]; first compound 0.06325 µM) | relative viability ([3]; first compound 0.002 µM) | relative viability ([3]; first compound 0.006325 µM) | relative viability ([3]; first compound 0.02 µM) | relative viability ([3]; first compound 0.06325 µM) | relative viability ([4]; first compound 0.001 µM) | relative viability ([4]; first compound 0.003162 µM) | relative viability ([4]; first compound 0.01 µM) | relative viability ([4]; first compound 0.03162 µM) | relative viability ([4]; first compound 0.1 µM)
1 | NCI-H3122 | 1.08 | 0.903 | 1.04 | 1.05 | 1.04 | 0.0874 | 0.123 | 0.0877 | 0.0824 | 0.548 | 0.641 | 0.857 | 0.932 | 0.93 | 0.981 | 1.02 | 1.03 | 1.02
2 | PC-3 [JPC-3] | 0.416 | 0.472 | 0.471 | 0.481 | 0.415 | 0.654 | 0.732 | 0.673 | 0.653 | 0.917 | 1.04 | 1.02 | 1.01 | 0.703 | 0.859 | 0.768 | 0.835 | 0.821
3 | PC-14 | 0.271 | 0.322 | 0.306 | 0.333 | 0.337 | 0.171 | 0.174 | 0.111 | 0.143 | 0.231 | 0.26 | 0.252 | 0.114 | 1 | 0.892 | 1.09 | 0.966 | 0.977
4 | RERF-LC-KJ | 0.883 | 0.766 | 0.864 | 0.864 | 0.777 | 1.14 | 1 | 1.18 | 1.15 | 0.755 | 0.836 | 0.851 | 0.78 | 0.854 | 0.699 | 1.08 | 0.918 | 0.688
5 | SK-LU-1 | 0.704 | 0.867 | 1.3 | 0.774 | 0.725 | 0.183 | 0.185 | 0.21 | 0.223 | 0.215 | 0.175 | 0.185 | 0.206 | 0.852 | 0.771 | 0.979 | 0.72 | 1.07
6 | SK-MES-1 | 0.464 | 0.428 | 0.421 | 0.428 | 0.442 | 0.437 | 0.359 | 0.234 | 0.169 | 0.447 | 0.34 | 0.332 | 0.154 | 1.05 | 1.1 | 1.35 | 1.13 | 1.26
7 | SW 1573 | 1.03 | 1.09 | 1.24 | 1.01 | 1.21 | 0.246 | 0.179 | 0.17 | 0.0748 | 0.446 | 0.474 | 0.133 | 0.0759 | 1.1 | 0.864 | 0.954 | 0.981 | 0.968
8 | UMC-11 | 0.499 | 0.945 | 1.14 | 0.889 | 1.02 | 0.932 | 1.08 | 1 | 1.11 | 0.374 | 0.49 | 0.518 | 0.51 | 0.271 | 0.278 | 0.364 | 0.346 | 0.307
